# Peptide text beside a SMILES is read from it.
# Experiments:
# BCRP = BCRP (Homo sapiens, UniProt Q9UNQ0); test: Inhibition of BCRP in Caco-2 cells; type: in vitro ADME
# OATP1B3 = OATP1B3 (Homo sapiens, UniProt Q9NPD5); test: Transporter inhibition in HEK293 cells; type: in vitro ADME
# CYP1A2 [1] = type: in vitro ADME; details: cryopreserved human hepatocytes, three donors, 0.100 to 15.0 μM, 48 h, 37°C
# CYP1A2 [2] = target: T1, CYP1A2 (Homo sapiens, UniProt P05177); test: biochemical; type: in vitro ADME
# T1 sequence (P05177 1-516): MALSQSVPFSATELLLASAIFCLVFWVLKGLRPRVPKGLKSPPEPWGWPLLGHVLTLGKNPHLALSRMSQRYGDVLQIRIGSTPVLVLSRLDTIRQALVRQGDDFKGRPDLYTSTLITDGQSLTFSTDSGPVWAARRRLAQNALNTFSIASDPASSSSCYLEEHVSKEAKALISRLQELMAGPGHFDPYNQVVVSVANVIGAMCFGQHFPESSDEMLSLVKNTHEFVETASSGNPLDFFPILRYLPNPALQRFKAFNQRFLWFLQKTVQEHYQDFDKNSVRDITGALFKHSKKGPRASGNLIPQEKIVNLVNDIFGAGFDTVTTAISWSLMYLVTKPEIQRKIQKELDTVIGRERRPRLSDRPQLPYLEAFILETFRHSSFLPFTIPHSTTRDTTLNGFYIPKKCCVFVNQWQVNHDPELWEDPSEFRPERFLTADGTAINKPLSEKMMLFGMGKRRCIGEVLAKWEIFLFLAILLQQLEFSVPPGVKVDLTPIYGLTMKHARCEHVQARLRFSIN
# P-gp = P-gp (Homo sapiens, UniProt P08183); test: Inhibition of P-gp in Caco-2 cells; type: in vitro ADME
# CYP3A = test: CYP450 inhibition assay; type: in vitro ADME; details: human, pooled human liver microsomes
# [3] = In vitro blood to plasma partitioning; type: in vitro ADME, rat; details: for Mean erythrocyte to plasma ratio KE/P: rat whole blood, 37°C, 60 min
# SD rat hepatocytes = test: Hepatocyte stability; type: in vitro ADME; details: 1.00 μM
# human hepatocytes [4] = test: Concentration change of FC-12738 in the CYP induction assay; type: in vitro ADME; details: 24 hours, 37°C
# MATE2-K = MATE2-K (Homo sapiens, UniProt Q86VL8); test: Transporter inhibition in HEK293 cells; type: in vitro ADME
# [5] = In vitro protein binding, rapid equilibrium dialysis; type: in vitro ADME; details: cynomolgus monkey, plasma
# OATP1B1 = OATP1B1 (Homo sapiens, UniProt Q9Y6L6); test: Transporter inhibition in HEK293 cells; type: in vitro ADME
# CYP2C8 = target: T2, CYP2C8 (Homo sapiens, UniProt P10632); test: CYP450 inhibition assay; type: in vitro ADME
# T2 sequence (P10632 1-490): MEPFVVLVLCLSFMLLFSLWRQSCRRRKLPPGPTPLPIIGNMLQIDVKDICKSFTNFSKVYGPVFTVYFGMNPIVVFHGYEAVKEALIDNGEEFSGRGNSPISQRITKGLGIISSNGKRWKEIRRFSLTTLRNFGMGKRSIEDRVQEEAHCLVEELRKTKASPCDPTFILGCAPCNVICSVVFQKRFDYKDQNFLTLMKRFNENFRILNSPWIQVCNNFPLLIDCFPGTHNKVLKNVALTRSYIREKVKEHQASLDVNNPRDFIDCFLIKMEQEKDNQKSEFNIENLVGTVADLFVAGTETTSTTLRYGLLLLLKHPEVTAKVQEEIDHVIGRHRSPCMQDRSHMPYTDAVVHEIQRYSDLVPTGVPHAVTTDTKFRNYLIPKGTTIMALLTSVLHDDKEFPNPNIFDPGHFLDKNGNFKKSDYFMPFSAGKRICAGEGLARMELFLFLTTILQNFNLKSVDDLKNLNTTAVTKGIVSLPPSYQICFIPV
# human hepatocytes [6] = test: LDH release cytotoxicity in the CYP induction assay; type: cell-based; details: three donors, 0.100, 1.00, 3.00, 10.0 and 15.0 μM
# monkey hepatocytes = test: Metabolite identification in hepatocytes; type: in vitro ADME; details: cryopreserved monkey hepatocytes, FC-12738 10 μM, 37 °C, 240 min, LC-UV-MS
# rat hepatocytes = test: Metabolite identification in hepatocytes; type: in vitro ADME; details: cryopreserved rat hepatocytes, FC-12738 10 μM, 37 °C, 240 min, LC-UV-MS
# Plasma stability = type: in vitro ADME, cynomolgus monkey
# CYP2C9 = CYP2C9 (Homo sapiens, UniProt P11712); test: CYP450 inhibition assay; type: in vitro ADME
# CD-1 mouse hepatocytes = test: Hepatocyte stability; type: in vitro ADME; details: 1.00 μM
# Chain of OATP1B3 (Q9NPD5 whole entry): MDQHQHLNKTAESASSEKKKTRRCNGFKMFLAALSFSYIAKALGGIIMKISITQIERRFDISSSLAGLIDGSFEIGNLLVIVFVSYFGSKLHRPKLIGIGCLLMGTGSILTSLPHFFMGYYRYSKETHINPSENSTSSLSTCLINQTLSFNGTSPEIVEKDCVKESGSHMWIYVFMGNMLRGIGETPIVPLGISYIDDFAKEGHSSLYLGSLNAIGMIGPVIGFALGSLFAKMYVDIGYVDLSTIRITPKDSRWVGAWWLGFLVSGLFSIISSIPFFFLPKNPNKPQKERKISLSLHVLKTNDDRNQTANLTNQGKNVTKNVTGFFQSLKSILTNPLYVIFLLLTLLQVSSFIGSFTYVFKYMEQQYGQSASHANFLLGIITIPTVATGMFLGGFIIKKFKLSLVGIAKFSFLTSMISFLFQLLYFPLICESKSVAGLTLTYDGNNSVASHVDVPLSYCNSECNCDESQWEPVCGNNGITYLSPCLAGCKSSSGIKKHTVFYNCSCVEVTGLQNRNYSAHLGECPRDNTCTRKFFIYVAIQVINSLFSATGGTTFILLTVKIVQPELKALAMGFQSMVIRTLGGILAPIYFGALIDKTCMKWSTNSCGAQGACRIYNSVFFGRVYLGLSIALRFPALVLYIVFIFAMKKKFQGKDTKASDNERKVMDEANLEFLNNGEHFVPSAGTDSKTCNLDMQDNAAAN
# Chain of CYP2C9 (P11712 whole entry): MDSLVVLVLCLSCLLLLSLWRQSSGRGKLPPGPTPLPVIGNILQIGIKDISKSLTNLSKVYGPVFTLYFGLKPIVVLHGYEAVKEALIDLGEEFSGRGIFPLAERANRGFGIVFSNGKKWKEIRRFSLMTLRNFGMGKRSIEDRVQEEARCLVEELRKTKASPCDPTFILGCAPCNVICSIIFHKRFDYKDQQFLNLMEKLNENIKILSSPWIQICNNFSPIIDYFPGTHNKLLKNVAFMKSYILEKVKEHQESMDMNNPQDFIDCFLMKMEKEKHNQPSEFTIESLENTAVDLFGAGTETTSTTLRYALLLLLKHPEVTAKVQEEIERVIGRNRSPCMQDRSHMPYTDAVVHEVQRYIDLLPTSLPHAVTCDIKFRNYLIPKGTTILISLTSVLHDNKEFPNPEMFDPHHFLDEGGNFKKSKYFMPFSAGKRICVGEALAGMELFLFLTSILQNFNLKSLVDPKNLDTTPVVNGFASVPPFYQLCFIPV
# Chain of MATE2-K (Q86VL8 1-566 isoform Q86VL8-3): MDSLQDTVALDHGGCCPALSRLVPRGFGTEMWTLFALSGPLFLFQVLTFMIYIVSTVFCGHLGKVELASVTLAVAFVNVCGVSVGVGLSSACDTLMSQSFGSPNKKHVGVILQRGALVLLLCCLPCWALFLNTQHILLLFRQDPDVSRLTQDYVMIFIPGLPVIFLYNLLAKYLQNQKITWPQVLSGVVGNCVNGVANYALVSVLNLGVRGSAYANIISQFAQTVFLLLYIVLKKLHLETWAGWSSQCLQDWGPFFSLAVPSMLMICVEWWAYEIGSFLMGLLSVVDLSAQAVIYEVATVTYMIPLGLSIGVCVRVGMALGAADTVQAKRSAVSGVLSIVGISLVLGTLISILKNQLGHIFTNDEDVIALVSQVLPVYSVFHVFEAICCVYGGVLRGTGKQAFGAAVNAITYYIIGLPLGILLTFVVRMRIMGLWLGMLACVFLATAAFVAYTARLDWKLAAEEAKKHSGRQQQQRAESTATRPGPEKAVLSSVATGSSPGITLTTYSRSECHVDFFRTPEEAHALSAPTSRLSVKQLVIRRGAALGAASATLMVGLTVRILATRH
# Chain of P-gp (P08183 whole entry): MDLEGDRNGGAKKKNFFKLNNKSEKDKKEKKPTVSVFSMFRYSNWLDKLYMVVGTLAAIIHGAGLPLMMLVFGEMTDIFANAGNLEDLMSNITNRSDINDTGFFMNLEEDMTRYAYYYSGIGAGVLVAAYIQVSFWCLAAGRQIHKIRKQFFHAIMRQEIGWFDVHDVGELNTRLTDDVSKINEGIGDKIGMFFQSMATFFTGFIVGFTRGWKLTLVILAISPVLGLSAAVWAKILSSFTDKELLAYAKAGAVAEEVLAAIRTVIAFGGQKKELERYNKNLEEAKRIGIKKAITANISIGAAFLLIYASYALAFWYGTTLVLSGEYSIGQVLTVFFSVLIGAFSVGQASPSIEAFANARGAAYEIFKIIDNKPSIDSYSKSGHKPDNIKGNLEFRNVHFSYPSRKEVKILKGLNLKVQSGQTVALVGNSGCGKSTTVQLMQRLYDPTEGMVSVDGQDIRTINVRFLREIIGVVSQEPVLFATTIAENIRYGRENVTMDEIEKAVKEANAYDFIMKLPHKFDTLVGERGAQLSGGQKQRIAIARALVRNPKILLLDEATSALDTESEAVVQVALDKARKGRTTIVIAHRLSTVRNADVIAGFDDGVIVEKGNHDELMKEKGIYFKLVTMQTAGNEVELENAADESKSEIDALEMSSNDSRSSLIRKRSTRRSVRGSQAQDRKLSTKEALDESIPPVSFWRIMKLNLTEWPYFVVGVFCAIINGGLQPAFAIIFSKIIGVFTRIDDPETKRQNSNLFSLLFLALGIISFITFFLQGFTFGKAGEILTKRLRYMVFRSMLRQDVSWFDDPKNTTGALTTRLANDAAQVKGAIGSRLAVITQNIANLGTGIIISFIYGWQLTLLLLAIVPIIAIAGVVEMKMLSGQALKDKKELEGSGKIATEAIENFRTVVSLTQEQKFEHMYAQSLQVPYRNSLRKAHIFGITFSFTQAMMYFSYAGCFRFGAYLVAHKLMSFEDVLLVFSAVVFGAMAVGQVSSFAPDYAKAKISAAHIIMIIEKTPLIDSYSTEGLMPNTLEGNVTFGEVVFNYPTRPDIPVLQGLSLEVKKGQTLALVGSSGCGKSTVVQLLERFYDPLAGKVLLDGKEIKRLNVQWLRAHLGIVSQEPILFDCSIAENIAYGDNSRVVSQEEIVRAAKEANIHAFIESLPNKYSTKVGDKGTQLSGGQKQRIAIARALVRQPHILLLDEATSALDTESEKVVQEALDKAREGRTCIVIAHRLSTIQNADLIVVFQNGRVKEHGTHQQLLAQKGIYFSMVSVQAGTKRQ
# Chain of OATP1B1 (Q9Y6L6 whole entry, species assumed): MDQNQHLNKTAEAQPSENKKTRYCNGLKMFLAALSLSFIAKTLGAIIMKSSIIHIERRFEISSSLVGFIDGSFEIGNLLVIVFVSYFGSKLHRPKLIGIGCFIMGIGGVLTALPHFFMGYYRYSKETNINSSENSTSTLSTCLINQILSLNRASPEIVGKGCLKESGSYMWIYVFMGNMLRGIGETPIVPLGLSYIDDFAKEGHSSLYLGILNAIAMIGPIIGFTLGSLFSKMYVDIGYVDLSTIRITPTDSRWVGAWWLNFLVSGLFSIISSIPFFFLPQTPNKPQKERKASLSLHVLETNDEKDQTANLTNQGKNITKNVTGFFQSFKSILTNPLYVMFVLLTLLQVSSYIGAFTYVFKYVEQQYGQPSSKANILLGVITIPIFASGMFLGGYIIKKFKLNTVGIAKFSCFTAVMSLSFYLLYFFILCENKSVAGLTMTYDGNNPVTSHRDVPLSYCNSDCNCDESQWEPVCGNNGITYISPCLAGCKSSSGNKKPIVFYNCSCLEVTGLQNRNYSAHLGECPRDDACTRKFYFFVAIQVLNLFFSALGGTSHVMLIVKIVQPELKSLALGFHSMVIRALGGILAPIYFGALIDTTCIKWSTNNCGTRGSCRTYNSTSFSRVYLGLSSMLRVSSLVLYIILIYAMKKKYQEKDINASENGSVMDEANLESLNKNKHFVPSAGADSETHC
# Chain of BCRP (Q9UNQ0 whole entry): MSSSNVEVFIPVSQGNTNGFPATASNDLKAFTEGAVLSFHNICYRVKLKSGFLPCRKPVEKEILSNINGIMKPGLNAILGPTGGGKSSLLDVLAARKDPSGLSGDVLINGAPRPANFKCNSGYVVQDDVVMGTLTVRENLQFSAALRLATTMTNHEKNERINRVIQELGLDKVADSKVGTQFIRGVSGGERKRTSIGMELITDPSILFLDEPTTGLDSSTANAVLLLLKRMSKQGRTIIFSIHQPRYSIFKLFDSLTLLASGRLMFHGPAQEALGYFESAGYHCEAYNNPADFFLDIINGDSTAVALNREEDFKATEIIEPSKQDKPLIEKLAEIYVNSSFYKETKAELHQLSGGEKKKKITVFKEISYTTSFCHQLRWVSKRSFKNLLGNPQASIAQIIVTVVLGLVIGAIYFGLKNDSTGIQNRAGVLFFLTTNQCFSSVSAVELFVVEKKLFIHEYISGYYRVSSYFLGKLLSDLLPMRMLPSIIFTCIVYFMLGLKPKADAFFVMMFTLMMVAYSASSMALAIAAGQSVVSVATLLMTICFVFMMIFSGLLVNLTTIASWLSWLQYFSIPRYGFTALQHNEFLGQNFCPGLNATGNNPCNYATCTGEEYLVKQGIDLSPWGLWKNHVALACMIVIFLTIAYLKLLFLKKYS
smiles,measurement,setting,value
"CC(C)[C@@H](NC(=O)[C@H](N)Cc1ccc(O)cc1)C(=O)N[C@H](CC(=O)O)C(=O)N[C@H](CCCCN)C(=O)N[C@H](CCCNC(=N)N)C(=O)O [FC-12738, (D-Tyr)-(D-Val)-(D-Asp)-(D-Lys)-(D-Arg)] (HELM PEPTIDE1{[dY].[dV].[dD].[dK].[dR]}$$$$V2.0)",IC50,BCRP,> 100 µM
same,IC50,OATP1B3,> 100 µM
same,Induction of CYP1A2 (enzyme activity and gene expression),CYP1A2 [1],not considered as an inducer
same,IC50,CYP1A2 [2],> 100 µM
same,IC50,P-gp,> 100 µM
same,IC50,CYP3A,> 100 µM
same,Mean erythrocyte to plasma ratio KE/P,[3]; 0.200 μM,< 0.21
same,Mean erythrocyte to plasma ratio KE/P,[3]; 2.00 μM,< 0.11
same,Mean erythrocyte to plasma ratio KE/P,[3]; 10.0 μM,< 0.03
same,"tissue to tissue ratio at 1 h, 0.2 µM","[3]; rat, whole blood",0.48
same,"tissue to tissue ratio at 1 h, 2 µM","[3]; rat, whole blood",0.5
same,"tissue to tissue ratio at 1 h, 10 µM","[3]; rat, whole blood",0.47
same,intrinsic clearance CLint(hep),"SD rat hepatocytes; cryopreserved SD rat hepatocytes, 37.0°C, 120 min",< 1.9 μL/min/10^6 cells
same,half-life,"SD rat hepatocytes; cryopreserved SD rat hepatocytes, 37.0°C, 120 min, LC-MS/MS",> 6.212 h
same,hepatic clearance CLint(liver),SD rat hepatocytes; scaled from SD rat hepatocytes,< 8.7 mL/min/kg
same,% remaining,"human hepatocytes [4]; human hepatocytes Donor 1, 10.0 μM",69.1%
same,% remaining,"human hepatocytes [4]; human hepatocytes Donor 2, 15.0 μM",89.3%
same,% remaining,"human hepatocytes [4]; human hepatocytes Donor 3, 10.0 μM",61.0%
same,IC50,MATE2-K,> 100 µM
same,"fraction unbound at 6 h, 0.2 µM",[5],0.538
same,"fraction unbound at 6 h, 10 µM",[5],0.736
same,IC50,OATP1B1,> 100 µM
same,IC50,CYP2C8,> 100 µM
same,Cytotoxicity (released LDH),human hepatocytes [6],no cytotoxicity
same,Relative Abundance (UV%),monkey hepatocytes,89.24%
same,Relative Abundance (UV%),rat hepatocytes,87.56%
same,half-life,"Plasma stability; cynomolgus monkey plasma, 2.00 μM, 37.0 °C, up to 120 min",> 6.212 h
same,"remaining at 10 min, 2 μM","Plasma stability; monkey, plasma",105%
same,"remaining at 0.5 h, 2 μM","Plasma stability; monkey, plasma",105%
same,"remaining at 1 h, 2 μM","Plasma stability; monkey, plasma",105%
same,"remaining at 2 h, 2 μM","Plasma stability; monkey, plasma",102%
same,IC50,CYP2C9,> 100 µM
same,intrinsic clearance CLint(hep),"CD-1 mouse hepatocytes; cryopreserved CD-1 mouse hepatocytes, 37.0°C, 120 min",< 1.9 μL/min/10^6 cells
same,half-life,"CD-1 mouse hepatocytes; cryopreserved CD-1 mouse hepatocytes, 37.0°C, 120 min, LC-MS/MS",> 6.212 h
same,hepatic clearance CLint(liver),CD-1 mouse hepatocytes; scaled from CD-1 mouse hepatocytes,< 22.1 mL/min/kg

# Reference: doi:10.1101/2023.04.18.537371v1 (bioRxiv, 2023)
